# Where “and” joins values, the source holds several entries; their conditions need not be identical. Identical values can stand only once. Entries after “also recorded” stand apart in the source; their conditions may differ.
# Columns and labels:
# lung ILCs = assay: CellTrace Violet proliferation assay of sort-purified lung ILCs; format: cell-based, mouse; conditions: 3 days
# Method: ILC in vitro culture. For in vitro experiments 5,000 ILCs/well were cultured in a 96 well round bottom plate with 20 ng/ml IL-7 (R&D Systems), 200 ng/ml IL-25 (R&D Systems) or 20 ng/ml, 2 ng/ml or 0.2 ng/ml IL-33 (BioLegend) with or without 1 μg/ml Neuromedin U (US Biological). In some cases purified CD90.2^+ lung cells were first labeled with CellTrace Violet (Thermo Fisher Scientific), then sorted as described above, and cultured for 3 days under the indicated conditions.
# Proliferation assay. Lung cells were isolated and enriched for CD90.2 cells as described above, followed by labeling with CellTrace Violet (Cat #C34557; Thermo Fisher Scientific) according to manufacturer's instructions and subsequently stained with antibodies. After 3-day culture of sort-purified ILCs with 20 ng/ml IL-7 either alone or in combination with 200 ng/ml IL-33, 100 pM CGRP or 100 nM CGRP followed by staining, expression of CellTrace Violet in live (7AAD−) ILCs was analyzed on a BD LSRFortessa (BD Biosciences).
# lung ILC2s = assay: expression profiles (RNA-seq) of lung ILC2s cultured with CGRP, IL-33 or both; format: cell-based, mouse
# Method: RNA-Seq. For population (bulk) RNA-seq, sorted ILCs were lysed with RLT Plus buffer and RNA was extracted using the RNeasy Plus Mini Kit (Qiagen). Full-length RNA-seq libraries were prepared as previously described (Singer, M. et al. A Distinct Gene Module for Dysfunction Uncoupled from Activation in Tumor-Infiltrating T Cells. Cell 166, 1500-1511 e1509, doi:10.1016/j.cell.2016.08.052 (2016). and paired-end sequenced (75 bp×2) with a 150 cycle Nextseq 500 high output V2 kit.
# Culture of innate lymphoid cells. Sort-purified innate lymphoid cells (ILCs) were cultured under sterile conditions in complete medium in a humidified incubator at 37° C. and 10% CO2. ILCs were plated at a density of 3,000-5,000 ILCs per well in a 96 well round-bottom plate in cell culture medium with 20 ng/ml IL-7. Depending on the experiment, different combinations of 200 ng/ml IL-25, 200 ng/ml IL-33, 1 ug/ml NMU and 100 nM CGRP were added either at start or after overnight culture with 20 ng/ml IL-7. After 6 hours or 3 days, culture supernatant was removed and frozen at −20° C. and ILCs were lysed in Extraction Buffer (PicoPure RNA isolation Kit; Thermo Fisher Scientific), incubated at 42° C. for 30 min and frozen at −80° C.
# [1] = tested on: IL-25+NMU-induced airway inflammation; assay: IL-25+NMU-induced airway inflammation, intranasal co-administration of CGRP; format: in vivo, mouse
# Method: Cytokine-induced airway inflammation. Mice received nasally 500 ng IL-25, 500 ng IL-33, 20 ug NMU or 6.65 ug CGRP diluted in DPBS for three consecutive days. For nasal administration, mice were lightly anesthetized with Isoflurane (Cat #07-893-1389; Patterson Veterinary). For induction of inflammatory ILC2s, mice received intraperitoneally 500 ng IL-25 for three consecutive days. One day after the last treatment, mice were euthanized and perfused with 8 ml cold PBS via the right heart ventricle. After exposure of the trachea, a small incision was made at the top of the trachea and a curved gavage needle was inserted. Lungs were washed with 1.5 ml cold PBS via the needle and the retrieved bronchoalveolar lavage fluid was centrifuged at 1300 rpm for 5 min at 4 C. After centrifugation, the supernatant was frozen at −20° C. and the cell pellet was resuspended in 250 ul complete medium and stored on ice until flow cytometric analysis. The post-caval lung lobe was transferred into 10% buffered formalin and stored at room temperature until paraffin embedding for histological analysis. The other lung lobes were dissociated using the lung dissociation kit (Cat #130-095-927; Miltenyi Biotec) and automated tissue dissociator (gentleMACS; Miltenyi Biotec) as described above with the adjustment that after running program lung_02, the single cell suspension was centrifuged at 1300 rpm for 5 min at 4° C. and 1 ml of the supernatant was frozen at −20° C. Single-cell suspension was resuspended in complete cell culture medium and stored on ice until further processing.
# For cell counts, lung cells were transferred into FACS tubes and stained with 7AAD. Precision Count Beads (Cat #424902; BioLegend) were added according to manufacturer's instructions. Cells and beads were acquired on a BD LSRFortessa (BD Biosciences) and cell numbers were calculated based on number of acquired live (7AAD−) cells and number of acquired beads.
# For flow cytometric analysis, lung cells were transferred into a 96 well V-bottom plate and stained with surface antibodies for 20 min at 4° C. in the dark. Cells were washed twice with DPBS containing 2% fetal bovine serum and transferred into 1.2 ml tubes for analysis by flow cytometry. For intracellular cytokine staining, cells were incubated in complete cell culture medium with 50 ng/ml phorbol 12-myristate 13-acetate (Sigma-Aldrich), 1 uM ionomycin (Sigma-Aldrich) and GolgiStop (Cat #554724; BD Biosciences) in a humidified incubator at 37° C. and 10% CO2. After 5 hours, cells were transferred into 96 well V-bottom plate, stained with Fixable Viability Dye eFluor 506 (Cat #65-0866-14; Thermo Fisher) and surface antibodies for 20 min at 4° C. in the dark and washed twice with DPBS containing 2% fetal bovine serum. Then, cells were incubated with BD Cytofix/Cytoperm Buffer (Cat #51-2090KZ; BD Biosciences) for 20 min, followed by a wash with BD Perm/Wash Buffer (Cat #51-2091KZ; BD Biosciences). Subsequently, cells were incubated with antibodies targeting intracellular proteins diluted in BD Perm/Wash Buffer for 20 min and after two wash steps, transferred into 1.2 ml tubes for analysis by flow cytometry. For ki67 staining, cells were stained for surface antibodies as described above, fixed with a solution of Fixation/Permeabilization Concentrate (Cat #00-5123-43; Invitrogen) and Fixation/Perm Diluent (Cat #00-5223-56; Invitrogen) for 20 min, washed with Permeabilization Buffer (Cat #00-8333-56; Invitrogen). Then, cells were incubated with ki67 antibody diluted in Permeabilization Buffer for 20 min, washed and transferred into FACS tubes. Cells were analyzed on a BD LSRFortessa (BD Biosciences) flow cytometer with 5 lasers (355 nm, 405 nm, 488 nm, 561 nm and 640 nm). Data was analyzed using FlowJo v10.5.0 software and cell populations were gated as described previously (Wallrapp 2017).
# RNA isolation and cDNA synthesis. […]
substance,measurement,setting,value
"CGRP: neuropeptide calcitonin gene-related peptide (encoded by Calca), ligand of the Ramp1/Calcrl receptor; given at 100 nM in vitro, 6.65 ug nasally",IL-33-activated ILCs that proliferated,lung ILCs; IL-7+IL-33 in the presence of 100 nM CGRP,less than 10%
same,IL-33-induced proliferation of ILCs,lung ILCs; IL-33 with 100 pM or 100 nM CGRP vs IL-33 alone,inhibits IL-33-induced proliferation in a dose-dependent manner; also recorded: strongly inhibited
same,differentially expressed genes of CGRP alone shared with CGRP+IL-33 treatment,lung ILC2s; CGRP alone vs CGRP+IL-33,112 genes
same,"genes associated with cell cycle progression (Mki67, Birc5, Kdm8)",lung ILC2s; CGRP treatment alone,down-regulated
same,number of differentially expressed genes,lung ILC2s; CGRP treatment alone (IL-7+CGRP vs IL-7),331 genes
same,Il13 and Arg1 expression (effector ILC2 genes),lung ILC2s; IL-33+CGRP vs IL-33,significantly down-regulated
same,"genes associated with negative regulation of effector T cell responses (Pdcd1, Havcr2, Lilrb4, Entpd1, Tnfrsf18, FoxP3, Nfil3, Nr3c1, Fgl2)",lung ILC2s; IL-33+CGRP vs IL-33,upregulated
same,number of differentially expressed genes up-regulated in the presence of CGRP,"lung ILC2s; IL-33+CGRP vs IL-33, 3 days",635 genes
same,number of differentially expressed genes,"lung ILC2s; IL-33+CGRP vs IL-33, 3 days, P<0.05, fold change >1.5",> 900 genes and 946 genes
same,Ramp3 and Calca expression in ILC2s,"lung ILC2s; with CGRP, confirmed by qPCR",upregulated
same,lung ILC frequencies and numbers,"[1]; IL-25+CGRP vs IL-25, nasal, three consecutive days",no effect
same,IL-5 protein in lung tissue and BALF,[1]; IL-25+NMU+CGRP vs IL-25+NMU,non-significant trend towards reduced expression
same,IL-13 protein in lung tissue and bronchoalveolar lavage fluid,[1]; IL-25+NMU+CGRP vs IL-25+NMU,reduced
same,ILC proliferation (intracellular Ki67),[1]; IL-25+NMU+CGRP vs IL-25+NMU,significantly decreased
same,eosinophil frequency and numbers in the BAL,[1]; IL-25+NMU+CGRP vs IL-25+NMU,towards decreased
same,lung ILC frequencies and numbers,[1]; IL-25+NMU+CGRP vs IL-25+NMU,strong reduction
same,type 2 cytokine mRNA in lung tissue,[1]; IL-25+NMU+CGRP vs IL-25+NMU,diminished expression

# From patent US20210386829A1, “COMPOSITIONS AND METHODS FOR MODULATING CGRP SIGNALING TO REGULATE INNATE LYMPHOID CELL INFLAMMATORY RESPONSES” (The Broad Institute, Inc., priority 2018, published 2021)
